{"source": "patent US20050176938A1", "about": "“Anhydrate/hydrate of an erythromycin derivative and processes for preparing said anhydrate/hydrate” (Chugai Seiyaku Kabushiki Kaisha, priority 2002, published 2005)", "type_in_all_cases": "physicochemical", "key": {"[1]": {"test": "Residual solvent level (ethyl acetate) by gas chromatography", "settings": "for Residual solvent level: anhydrate before, X-hydrate after conditioning", "from_the_text": "The residual solvent level described above can be determined by a known method such as gas chromatography. Gas chromatography is described in detail at B98-B114 of the Practical Guide of the 14th revision of Pharmacopoeia of Japan (published by Hirokawa Publishing Co., 2001) or the like. The measurement error by gas chromatography is normally within about ±1%.\nThe following examples further illustrate the present invention without, however, limiting the invention thereto. In the following examples, NMR spectra were measured by using a nuclear magnetic resonance spectrometer JNM-ECP500SS (made by JEOL) and only characteristic peaks were shown. Powder X-ray diffraction spectra were measured by using a powder X-ray diffractometer RINT-1100 (made by Rigaku). Residual solvent levels were measured by using a gas chromatograph GC-17A (made by Shimadzu) within an error of about ±1%. The staring material Dihydroxy compound described below (compound 1) can be prepared according to the process described in JPA 1997-100241 or modifications thereof.\nCrystal form D anhydrate prepared according to Example 2 and Crystal form D X-hydrate prepared by conditioning said anhydrate according to Example 3 (1) or (2) using an air-circulating dryer (made by Nippon Kansoki), a vibro-fluidized bed dryer VUA-10DJ (made by Chuo Kakohki) or a fluidized bed granulator New Marumerizer NQ-160 (made by Fuji Paudal) were assayed for their residual solvent levels (ethyl acetate) by gas chromatography. Before and after conditioning, the crystal form was confirmed by powder X-ray diffraction spectra to have been transferred from Crystal form D anhydrate into Crystal form D X-hydrate."}, "[2]": {"test": "Accelerated testing with oxygen at 40° C. for 2 weeks and 1 month, degradants by HPLC", "settings": "for Percent Degradants: Oxygen replacement, X-hydrate 75% RH", "description": "(§1) The resulting samples were tested for purity by HPLC, and the peak area of each sample was measured by automatic analysis to determine the product percentage by the area percentage method according to the equation below. The HPLC column used was YMC ODS AM303 (4.6×250 mm) with a mobile phase consisting of a solution of acetonitrile: water=1:1 containing PICB-8 (Low UV) reagent, and a UV spectrometer (260 nm) and a PDA (200-400 nm) were used as detectors on 25 μL of each sample solution prepared by dissolving about 20 mg of each sample in a solution of acetonitrile:water=1:1 to a volume of exactly 25 mL.\n(§2) Degradants percentage (%)=(degradants peak area×100)/(total of peak areas excluding peaks derived from fumaric acid and control solution)\nIn the same manner as described in (1) above, Crystal form D was stored and dried under reduced pressure in a desiccator containing silica gel. After drying under reduced pressure, the air in the desiccator was replaced with high-purity oxygen conditioned at a relative humidity of 0% RH to perform accelerated testing of Crystal form D anhydrate at 40° C. for 2 weeks and for 1 month. Similarly, Crystal form D was stored in a desiccator conditioned at a relative humidity of about 75% RH by an aqueous saturated sodium chloride solution and the air in the desiccator was replaced with high-purity oxygen conditioned at a relative humidity of 75% RH to perform accelerated testing of Crystal form D X-hydrate at 40° C. for 2 weeks and for 1 month. The resulting samples were analyzed as described in (1) above. Before and after accelerated testing, the crystal form was confirmed to be kept Crystal form D anhydrate or Crystal form D X-hydrate under each conditions by powder X-ray diffraction spectra."}, "[3]": {"test": "Accelerated testing (stability) of Crystal form D anhydrate and X-hydrate at 40° C. and 60° C. for 1 month, degradants by HPLC", "settings": "for Percent Degradants: X-hydrate at about 75% RH", "description": "Three lots of Crystal form D anhydrate prepared according to the procedure described in Example 2 were stored and dried under reduced pressure in a desiccator containing silica gel. After drying under reduced pressure, the desiccator was charged with air conditioned at a relative humidity of 0% RH to perform accelerated testing of Crystal form D anhydrate at 40° C. for 1 month and at 60° C. for 1 month. Similarly, Crystal form D was stored in a desiccator conditioned at a relative humidity of about 75% RH by an aqueous saturated sodium chloride solution to perform accelerated testing of Crystal form D X-hydrate at 40° C. for 1 month and at 60° C. for 1 month. Before and after accelerated testing, the crystal form was confirmed to be Crystal form D anhydrate or Crystal form D X-hydrate by powder X-ray diffraction spectra.\nas §1, §2"}}, "note": "Where a name gives a salt, the structure may show the parent alone."}
{"smiles": "CC[C@H]1OC(=O)[C@H](C)[C@@H](O[C@H]2C[C@@](C)(OC)[C@@H](O)[C@H](C)O2)[C@H](C)[C@@H](O[C@@H]2O[C@H](C)C[C@H](N(C)C(C)C)[C@H]2O)[C@@]2(C)CC(C)=C(O2)[C@H](C)C(=O)[C@]1(C)OC", "note": "[Crystal form D X-hydrate, [2S, 4R, 5R, 8R, 9S, 10S, 11R, 12R]-9-[(2,6-dideoxy-3-C-methyl-3-O-methyl-α-L-ribo-hexopyranosyl)oxy]-5-ethyl-4-methoxy-2,4,8,10,12,14-hexamethyl-11-[[3,4,6-trideoxy-3-(isopropylmethylamino)-β-D-xylo-hexopyranosyl]oxy]-6,15-dioxabicyclo[10.2.1]pentadec-14 (1)-ene-3,7-dione (E)-2-butenedioic acid salt (2:1)]", "values": [{"measurement": "Residual solvent level", "setting": "[1]; Lot A, Air-circulating dryer, 20-21° C., 58-63% RH (air) 2 hrs, listed as X-hydrate", "result": 636, "unit": "ppm"}, {"measurement": "Residual solvent level", "setting": "[1]; Lot B, Vibro-fluidized bed dryer, 22-28° C., 75 ± 15% RH (nitrogen gas) 4 hrs, listed as X-hydrate", "result": 446, "unit": "ppm"}, {"measurement": "Residual solvent level", "setting": "[1]; Lot C, Fluidized bed granulator, 24-29° C., 75 ± 10% RH (air) 4 hrs, listed as X-hydrate", "result": 424, "unit": "ppm"}, {"measurement": "Residual solvent level", "setting": "[1]; Lot D, Vibro-fluidized bed dryer, 19-26° C., 70-71% RH (nitrogen gas) 4 hrs, listed as X-hydrate", "result": 424, "unit": "ppm"}, {"measurement": "Residual solvent level", "setting": "[1]; Lot E, Air-circulating dryer, 19-28° C., 41-71% RH (air) 72 hrs, listed as X-hydrate", "result": 251, "unit": "ppm"}, {"measurement": "residual solvent level compared between the crystal forms", "setting": "[1]; all the lots", "result": "lower"}, {"measurement": "Percent Degradants", "setting": "[2]; 1 month, Lot 1, anhydrate 0% RH, listed as X-hydrate", "result": 0.66, "unit": "%"}, {"measurement": "Percent Degradants", "setting": "[2]; 1 month, Lot 2, anhydrate 0% RH, listed as X-hydrate", "result": 0.72, "unit": "%"}, {"measurement": "Percent Degradants", "setting": "[2]; 1 month, Lot 3, anhydrate 0% RH, listed as X-hydrate", "result": 0.93, "unit": "%"}, {"measurement": "Percent Degradants", "setting": "[2]; 2 weeks, Lot 1, anhydrate 0% RH, listed as X-hydrate", "result": 0.17, "unit": "%"}, {"measurement": "Percent Degradants", "setting": "[2]; 2 weeks, Lot 2, anhydrate 0% RH, listed as X-hydrate", "result": 0.05, "unit": "%"}, {"measurement": "Percent Degradants", "setting": "[2]; 2 weeks, Lot 3, anhydrate 0% RH, listed as X-hydrate", "result": 0.18, "unit": "%"}, {"measurement": "stability compared between the crystal forms", "setting": "[2]; oxygen replacement, 2 weeks and 1 month", "result": "more stable than Crystal form D anhydrate"}, {"measurement": "stability compared between the crystal forms", "setting": "[3]; 40° C. and 60° C., all the lots", "result": "more stable than Crystal form D anhydrate"}, {"measurement": "Percent Degradants", "setting": "[3]; 40° C., Lot 1, anhydrate at 0% RH, listed as X-hydrate", "result": 0.17, "unit": "%"}, {"measurement": "Percent Degradants", "setting": "[3]; 40° C., Lot 2, anhydrate at 0% RH, listed as X-hydrate", "result": 0.42, "unit": "%"}, {"measurement": "Percent Degradants", "setting": "[3]; 40° C., Lot 3, anhydrate at 0% RH, listed as X-hydrate", "result": 0.22, "unit": "%"}, {"measurement": "Percent Degradants", "setting": "[3]; 60° C., Lot 1, anhydrate at 0% RH, listed as X-hydrate", "result": 0.90, "unit": "%"}, {"measurement": "Percent Degradants", "setting": "[3]; 60° C., Lot 2, anhydrate at 0% RH, listed as X-hydrate", "result": 0.63, "unit": "%"}, {"measurement": "Percent Degradants", "setting": "[3]; 60° C., Lot 3, anhydrate at 0% RH, listed as X-hydrate", "result": 1.53, "unit": "%"}]}
{"smiles": "CC[C@H]1OC(=O)[C@H](C)[C@@H](O[C@H]2C[C@@](C)(OC)[C@@H](O)[C@H](C)O2)[C@H](C)[C@@H](O[C@@H]2O[C@H](C)C[C@H](N(C)C(C)C)[C@H]2O)[C@@]2(C)CC(C)=C(O2)[C@H](C)C(=O)[C@]1(C)OC", "note": "[Crystal form D anhydrate, [2S, 4R, 5R, 8R, 9S, 10S, 11R, 12R]-9-[(2,6-dideoxy-3-C-methyl-3-O-methyl-α-L-ribo-hexopyranosyl)oxy]-5-ethyl-4-methoxy-2,4,8,10,12,14-hexamethyl-11-[[3,4,6-trideoxy-3-(isopropylmethylamino)-β-D-xylo-hexopyranosyl]oxy]-6,15-dioxabicyclo[10.2.1]pentadec-14(1)-ene-3,7-dione (E)-2-butenedioic acid salt (2:1)]", "values": [{"measurement": "Residual solvent level", "setting": "[1]; Lot A, Air-circulating dryer, 20-21° C., 58-63% RH (air) 2 hrs, listed as Anhydrate", "result": 697, "unit": "ppm"}, {"measurement": "Residual solvent level", "setting": "[1]; Lot B, Vibro-fluidized bed dryer, 22-28° C., 75 ± 15% RH (nitrogen gas) 4 hrs, listed as Anhydrate", "result": 616, "unit": "ppm"}, {"measurement": "Residual solvent level", "setting": "[1]; Lot C, Fluidized bed granulator, 24-29° C., 75 ± 10% RH (air) 4 hrs, listed as Anhydrate", "result": 750, "unit": "ppm"}, {"measurement": "Residual solvent level", "setting": "[1]; Lot D, Vibro-fluidized bed dryer, 19-26° C., 70-71% RH (nitrogen gas) 4 hrs, listed as Anhydrate", "result": 875, "unit": "ppm"}, {"measurement": "Residual solvent level", "setting": "[1]; Lot E, Air-circulating dryer, 19-28° C., 41-71% RH (air) 72 hrs, listed as Anhydrate", "result": 663, "unit": "ppm"}, {"measurement": "Percent Degradants", "setting": "[2]; 1 month, Lot 1, anhydrate 0% RH, listed as Anhydrate", "result": 3.12, "unit": "%"}, {"measurement": "Percent Degradants", "setting": "[2]; 1 month, Lot 2, anhydrate 0% RH, listed as Anhydrate", "result": 3.39, "unit": "%"}, {"measurement": "Percent Degradants", "setting": "[2]; 1 month, Lot 3, anhydrate 0% RH, listed as Anhydrate", "result": 3.96, "unit": "%"}, {"measurement": "Percent Degradants", "setting": "[2]; 2 weeks, Lot 1, anhydrate 0% RH, listed as Anhydrate", "result": 1.01, "unit": "%"}, {"measurement": "Percent Degradants", "setting": "[2]; 2 weeks, Lot 2, anhydrate 0% RH, listed as Anhydrate", "result": 1.00, "unit": "%"}, {"measurement": "Percent Degradants", "setting": "[2]; 2 weeks, Lot 3, anhydrate 0% RH, listed as Anhydrate", "result": 1.32, "unit": "%"}, {"measurement": "Percent Degradants", "setting": "[3]; 40° C., Lot 1, anhydrate at 0% RH, listed as Anhydrate", "result": 1.01, "unit": "%"}, {"measurement": "Percent Degradants", "setting": "[3]; 40° C., Lot 2, anhydrate at 0% RH, listed as Anhydrate", "result": 1.38, "unit": "%"}, {"measurement": "Percent Degradants", "setting": "[3]; 40° C., Lot 3, anhydrate at 0% RH, listed as Anhydrate", "result": 1.41, "unit": "%"}, {"measurement": "Percent Degradants", "setting": "[3]; 60° C., Lot 1, anhydrate at 0% RH, listed as Anhydrate", "result": 2.66, "unit": "%"}, {"measurement": "Percent Degradants", "setting": "[3]; 60° C., Lot 2, anhydrate at 0% RH, listed as Anhydrate", "result": 2.52, "unit": "%"}, {"measurement": "Percent Degradants", "setting": "[3]; 60° C., Lot 3, anhydrate at 0% RH, listed as Anhydrate", "result": 3.05, "unit": "%"}]}
